Assay results reported in patent US20100298141A1, “SUBSTITUTED PYRIDINE N-OXIDE HERBICIDES” (E. I. DU PONT DE NEMOURS AND COMPANY, priority 2007, published 2010).

Key:
morningglory = assay: Test A pre-/postemergence greenhouse test; assay type: in vivo, Ipomoea spp.; conditions: for Morningglory plant response rating: 0 to 100 scale
In short: (§1)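 Visual injury ratings against untreated controls, taken roughly ten days after treatment in greenhouse. Plants were sprayed postemergence at one- to two-leaf stage (2–10 cm tall); at the same time, seeded loam/sand soil received a directed preemergence spray. Formulation: non-phytotoxic solvent mixture with surfactant.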

rice = assay: Test C flooded paddy test; assay type: in vivo, Oryza sativa; conditions: Flood
In short: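 Test compounds are applied straight into paddy water held 3 cm above the soil surface, with that flood maintained for the whole test. After 13 to 15 days in the greenhouse, each species is scored visually relative to controls.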

cocklebur = assay: Test C pre-/postemergence test; assay type: in vivo, Xanthium strumarium; conditions: for Plant response rating, Cocklebur: scale 0 to 100, 0 no effect, 100 complete control
In short: (§2)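 Compounds in a non-phytotoxic solvent with surfactant applied preemergence to seeded pots and, at the same time, postemergence to plants 2–18 cm tall (1- to 4-leaf stage). Paddy tests: pots flooded to 3 cm, compound applied into the water, depth held throughout.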

green foxtail = assay: Test C pre-/postemergence test; assay type: in vivo, Setaria viridis; conditions: for Plant response rating, Foxtail, Green: scale 0 to 100, 0 no effect, 100 complete control
In short: as §2

downy brome = assay: Test C pre-/postemergence test; assay type: in vivo, Bromus tectorum; conditions: for Plant response rating, Bromegrass, Downy: scale 0 to 100, 0 no effect, 100 complete control
In short: as §2

bermudagrass = assay: Test C pre-/postemergence test; assay type: in vivo, Cynodon dactylon; conditions: for Plant response rating, Bermudagrass: Postemergence, scale 0 to 100, 0 no effect, 100 complete control
In short: as §2

redroot pigweed = assay: Test A pre-/postemergence greenhouse test; assay type: in vivo, Amaranthus retroflexus; conditions: for Pigweed plant response rating: 0 to 100 scale
In short: as §1

wild oat = assay: Test C pre-/postemergence test; assay type: in vivo, Avena fatua; conditions: for Plant response rating, Oat, Wild: scale 0 to 100, 0 no effect, 100 complete control
In short: as §2

catchweed bedstraw = assay: Test C pre-/postemergence test; assay type: in vivo, Galium aparine
In short: as §2

blackgrass = assay: Test C pre-/postemergence test; assay type: in vivo, Alopecurus myosuroides; conditions: for Plant response rating, Blackgrass: scale 0 to 100, 0 no effect, 100 complete control
In short: as §2

soybean = assay: Test C pre-/postemergence test; assay type: in vivo, Glycine max; conditions: for Soybean plant response rating: preemergence, scale 0 (no effect) to 100 (complete control); for Plant response rating, Soybean: scale 0 to 100, 0 no effect, 100 complete control
In short: as §2

kochia = assay: Test C pre-/postemergence test; assay type: in vivo, Kochia scoparia; conditions: for Plant response rating, Kochia: scale 0 to 100, 0 no effect, 100 complete control
In short: as §2

woolly cupgrass = assay: Test C pre-/postemergence test; assay type: in vivo, Eriochloa villosa; conditions: for Plant response rating, Cupgrass, Woolly: scale 0 to 100, 0 no effect, 100 complete control
In short: as §2

yellow nutsedge = assay: Test C pre-/postemergence test; assay type: in vivo, Cyperus esculentus; conditions: for Plant response rating, Nutsedge, Yellow: scale 0 to 100, 0 no effect, 100 complete control
In short: as §2

lambsquarters = assay: Test C pre-/postemergence test; assay type: in vivo, Chenopodium album; conditions: for Plant response rating, Lambsquarters: scale 0 to 100, 0 no effect, 100 complete control
In short: as §2

[1] = Postemergence, 125 g ai/ha, 0 is no effect, 100 is complete control
[2] = Postemergence, 500 g ai/ha, 0 is no effect, 100 is complete control
[3] = Preemergence, 125 g ai/ha, 0 no effect, 100 complete control
[4] = Preemergence, 500 g ai/ha, 0 to 100 scale where 0 is no effect and 100 is complete control
[5] = 31 g ai/ha, Preemergence, scale 0 to 100
[6] = 62 g ai/ha, preemergence, scale 0 (no effect) to 100 (complete control)
[7] = preemergence, 125 g ai/ha, scale 0 (no effect) to 100 (complete control)

## Cc1cc[n+]([O-])c([S+]([O-])Cc2c(C(F)(F)F)nn(C)c2OC(F)F)c1 (centres unmarked) [Compound 1]
morningglory; [1]
  Morningglory plant response rating: 70
morningglory; [2]
  Morningglory plant response rating: 90
morningglory; [3]
  Morningglory plant response rating: 70
morningglory; [4]
  Plant response rating, Morningglory: 80
rice; 31 g ai/ha, scale 0 to 100 (0 no effect, 100 complete control)
  Plant response rating, Rice: 0
rice; 62 g ai/ha, scale 0 to 100, 0 no effect, 100 complete control, 13 to 15 days
  Plant response rating, Rice: 0
rice; 125 g ai/ha, scale 0 to 100, 0 no effect, 100 complete control, 13 to 15 days
  Plant response rating, Rice: 80
rice; 250 g ai/ha, scale 0 to 100 (0 no effect, 100 complete control)
  Plant response rating, Rice: 80
cocklebur; [5]
  Cocklebur plant response rating: 0
cocklebur; [6]
  Cocklebur plant response rating: 0
cocklebur; Postemergence, 31 g ai/ha
  Plant response rating (0 to 100), Cocklebur: 0
cocklebur; Postemergence, 62 g ai/ha
  Plant response rating, Cocklebur: 0
cocklebur; Postemergence, 125 g ai/ha
  Plant response rating, Cocklebur: 0
cocklebur; Postemergence, 250 g ai/ha
  Plant response rating, Cocklebur: 0
cocklebur; Preemergence, 250 g ai/ha
  Plant response rating (0 to 100), Cocklebur: 60
cocklebur; [7]
  Cocklebur plant response rating: 0
Green foxtail; [5]
  Foxtail, Green plant response rating: 100
Green foxtail; [6]
  Foxtail, Green plant response rating: 100
Green foxtail; Postemergence, 31 g ai/ha
  Plant response rating (0 to 100), Foxtail, Green: 0
Green foxtail; Postemergence, 62 g ai/ha
  Plant response rating, Foxtail, Green: 0
Green foxtail; Postemergence, 125 g ai/ha
  Plant response rating, Foxtail, Green: 30
Green foxtail; Postemergence, 250 g ai/ha
  Plant response rating, Foxtail, Green: 60
Green foxtail; Preemergence, 250 g ai/ha
  Plant response rating (0 to 100), Foxtail, Green: 100
Green foxtail; [7]
  Foxtail, Green plant response rating: 100
Downy brome; [5]
  Bromegrass, Downy plant response rating: 0
Downy brome; [6]
  Bromegrass, Downy plant response rating: 50
Downy brome; Postemergence, 31 g ai/ha
  Plant response rating (0 to 100), Bromegrass, Downy: 0
Downy brome; Postemergence, 62 g ai/ha
  Plant response rating, Bromegrass, Downy: 0
Downy brome; Postemergence, 125 g ai/ha
  Plant response rating, Bromegrass, Downy: 0
Downy brome; Postemergence, 250 g ai/ha
  Plant response rating, Bromegrass, Downy: 0
Downy brome; Preemergence, 250 g ai/ha
  Plant response rating (0 to 100), Bromegrass, Downy: 100
Downy brome; [7]
  Bromegrass, Downy plant response rating: 100
bermudagrass; [5]
  Bermudagrass plant response rating: 85
bermudagrass; [6]
  Bermudagrass plant response rating: 90
bermudagrass; 125 g ai/ha
  Plant response rating, Bermudagrass: 70
bermudagrass; 250 g ai/ha
  Plant response rating, Bermudagrass: 80
bermudagrass; Preemergence, 250 g ai/ha
  Plant response rating (0 to 100), Bermudagrass: 100
bermudagrass; [7]
  Bermudagrass plant response rating: 100
Redroot pigweed; [1]
  Pigweed plant response rating: 100
Redroot pigweed; [2]
  Pigweed plant response rating: 100
Redroot pigweed; [3]
  Pigweed plant response rating: 100
Redroot pigweed; [4]
  Plant response rating, Pigweed: 100
Wild oat; [5]
  Oat, Wild plant response rating: 50
Wild oat; [6]
  Oat, Wild plant response rating: 85
Wild oat; Postemergence, 31 g ai/ha
  Plant response rating (0 to 100), Oat, Wild: 0
Wild oat; Postemergence, 62 g ai/ha
  Plant response rating, Oat, Wild: 0
Wild oat; Postemergence, 125 g ai/ha
  Plant response rating, Oat, Wild: 0
Wild oat; Postemergence, 250 g ai/ha
  Plant response rating, Oat, Wild: 0
Wild oat; Preemergence, 250 g ai/ha
  Plant response rating (0 to 100), Oat, Wild: 100
Wild oat; [7]
  Oat, Wild plant response rating: 95
Catchweed bedstraw; [5]
  Galium plant response rating: 70
Catchweed bedstraw; [6]
  Galium plant response rating: 85
Catchweed bedstraw; Preemergence, 250 g ai/ha
  Plant response rating (0 to 100), Galium: 98
Catchweed bedstraw; [7]
  Galium plant response rating: 98
blackgrass; [5]
  Blackgrass plant response rating: 70
blackgrass; [6]
  Blackgrass plant response rating: 100
blackgrass; Postemergence, 31 g ai/ha
  Plant response rating (0 to 100), Blackgrass: 0
blackgrass; Postemergence, 62 g ai/ha
  Plant response rating, Blackgrass: 0
blackgrass; Postemergence, 125 g ai/ha
  Plant response rating, Blackgrass: 0
blackgrass; Postemergence, 250 g ai/ha
  Plant response rating, Blackgrass: 0
blackgrass; Preemergence, 250 g ai/ha
  Plant response rating (0 to 100), Blackgrass: 100
blackgrass; [7]
  Blackgrass plant response rating: 100
soybean; 62 g ai/ha
  Soybean plant response rating: 100
soybean; Postemergence, 31 g ai/ha
  Plant response rating (0 to 100), Soybean: 60
soybean; Postemergence, 62 g ai/ha
  Plant response rating (0 to 100), Soybean: 85
soybean; Postemergence, 125 g ai/ha
  Plant response rating, Soybean: 85
soybean; Postemergence, 250 g ai/ha
  Plant response rating, Soybean: 90
soybean; Preemergence, 250 g ai/ha
  Plant response rating (0 to 100), Soybean: 100
soybean; 125 g ai/ha
  Soybean plant response rating: 100
kochia; [5]
  Kochia plant response rating: 100
kochia; [6]
  Kochia plant response rating: 100
kochia; Postemergence, 31 g ai/ha
  Plant response rating (0 to 100), Kochia: 0
kochia; Postemergence, 62 g ai/ha
  Plant response rating, Kochia: 0
kochia; Postemergence, 125 g ai/ha
  Plant response rating, Kochia: 10
kochia; Postemergence, 250 g ai/ha
  Plant response rating, Kochia: 40
kochia; Preemergence, 250 g ai/ha
  Plant response rating (0 to 100), Kochia: 100
kochia; [7]
  Kochia plant response rating: 100
Woolly cupgrass; [5]
  Cupgrass, Woolly plant response rating: 40
Woolly cupgrass; [6]
  Cupgrass, Woolly plant response rating: 60
Woolly cupgrass; Postemergence, 31 g ai/ha
  Plant response rating (0 to 100), Cupgrass, Woolly: 0
Woolly cupgrass; Postemergence, 62 g ai/ha
  Plant response rating, Cupgrass, Woolly: 0
Woolly cupgrass; Postemergence, 125 g ai/ha
  Plant response rating, Cupgrass, Woolly: 40
Woolly cupgrass; Postemergence, 250 g ai/ha
  Plant response rating, Cupgrass, Woolly: 70
Woolly cupgrass; Preemergence, 250 g ai/ha
  Plant response rating (0 to 100), Cupgrass, Woolly: 90
Woolly cupgrass; [7]
  Cupgrass, Woolly plant response rating: 90
Yellow nutsedge; [5]
  Nutsedge, Yellow plant response rating: 0
Yellow nutsedge; [6]
  Nutsedge, Yellow plant response rating: 95
Yellow nutsedge; Postemergence, 31 g ai/ha
  Plant response rating (0 to 100), Nutsedge, Yellow: 0
Yellow nutsedge; Postemergence, 62 g ai/ha
  Plant response rating, Nutsedge, Yellow: 0
Yellow nutsedge; Postemergence, 125 g ai/ha
  Plant response rating, Nutsedge, Yellow: 0
Yellow nutsedge; Postemergence, 250 g ai/ha
  Plant response rating, Nutsedge, Yellow: 0
Yellow nutsedge; Preemergence, 250 g ai/ha
  Plant response rating (0 to 100), Nutsedge, Yellow: 100
Yellow nutsedge; [7]
  Nutsedge, Yellow plant response rating: 100
lambsquarters; [5]
  Lambsquarters plant response rating: 100
lambsquarters; [6]
  Lambsquarters plant response rating: 100
lambsquarters; Postemergence, 31 g ai/ha
  Plant response rating (0 to 100), Lambsquarters: 0
lambsquarters; Postemergence, 62 g ai/ha
  Plant response rating, Lambsquarters: 40
lambsquarters; Postemergence, 125 g ai/ha
  Plant response rating, Lambsquarters: 40
lambsquarters; Postemergence, 250 g ai/ha
  Plant response rating, Lambsquarters: 70
lambsquarters; Preemergence, 250 g ai/ha
  Plant response rating (0 to 100), Lambsquarters: 100
lambsquarters; [7]
  Lambsquarters plant response rating: 100
